Reference: patent publication US8012979B2, “Compounds and their uses 707” (AstraZeneca AB, priority 2007, dated 2011)
Structures can show the parent of a compound that is named as a salt.

Target: T1, human active recombinant p38α-6His tagged (Homo sapiens, UniProt Q16539)
T1 construct: 6His
Assay: p38 Alpha Enzyme Assay (AlphaScreen, biotinylated-ATF2 substrate)
Type: biochemical
Settings: pre-incubated 4 hours at 37° C., reaction initiated with ATP; 0.5 nM enzyme; read-out: p38 pIC50 (converted)
Experimental: The ability of the compounds of formula (I) to inhibit p38 kinase may be determined using the following biological assay:
Enzyme assays were performed in polypropylene 96 well plates. The following solutions were added to each well; 10 μL of compound dilutions in assay buffer (20 mM HEPES pH 7.4, containing 20 mM magnesium acetate, 0.005% (w/v) Tween-20, 10 mM DTT) containing 1% (v/v) DMSO or assay buffer containing 1% (v/v) DMSO alone, 70 μL of assay buffer containing 36 nM substrate (biotinylated-ATF2) and 10 μL of an appropriate dilution of human active recombinant p38α-6His tagged. Depending on batch of p38, an appropriate dilution was typically a 5 nM solution to give a final enzyme concentration of 0.5 nM. At this stage, background control wells also received 50 μL of AlphaScreen quench buffer (10 mM HEPES pH 7.4 containing 100 mM EDTA, 0.2% (w/v) bovine serum albumin). The plate was covered, pre-incubated for 4 hours at 37° C. and the enzyme reaction initiated by addition of 10 μL 1 mM ATP. After incubation for a further 45 minutes at 37° C., the reaction was stopped by addition of 50 μL quench reagent and 50 μL of the quenched reaction mixture transferred to an opaque, white 96-well plate. Detection reagent, 25 μL of 10 mM HEPES pH 7.4 containing 100 mM EDTA, 0.2% (w/v) bovine serum albumin, 0.3 nM anti phosphoATF2 antibody and 25 μg/mL of ‘AlphaScreen protein A acceptor and donor beads’ (PerkinElmer Inc.), was added to all wells in a darkened room, the plate sealed and left in the dark for at least 5 hours before AlphaScreen readings were taken using a Perkin Elmer EnVision reader. Total, uninhibited activity was determined from assays performed in each assay plate. The mean control in the absence of p38 activity was subtracted from each well. Data were expressed as percent inhibition of total activity using equation 1. Percent Inhibition=100*(1−Test/Control) Eq.1 Where . . . . • Test=p38 kinase activity in the presence of compound • Control=p38 kinase activity in the absence of compound.
pIC50 is defined as the logarithm of the reciprocal of the concentration of compound required for 50% reduction in total p38 kinase activity.

T1 sequence (Q16539 whole entry): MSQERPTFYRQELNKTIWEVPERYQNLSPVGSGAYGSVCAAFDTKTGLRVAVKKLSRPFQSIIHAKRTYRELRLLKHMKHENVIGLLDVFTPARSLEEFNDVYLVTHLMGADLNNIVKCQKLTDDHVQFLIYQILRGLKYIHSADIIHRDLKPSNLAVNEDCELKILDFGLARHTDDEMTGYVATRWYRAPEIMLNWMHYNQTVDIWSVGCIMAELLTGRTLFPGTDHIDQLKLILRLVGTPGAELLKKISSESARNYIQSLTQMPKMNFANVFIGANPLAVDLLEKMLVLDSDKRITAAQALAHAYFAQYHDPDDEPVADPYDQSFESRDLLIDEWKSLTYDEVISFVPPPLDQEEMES

Compound | IC50
Cc1ccc(C(=O)NC2CC2)cc1-c1ccc2c(=O)n(Cc3ccc(Br)cc3)ccc2c1 [Example 3, 3-[2-(4-Bromo-benzyl)-1-oxo-1,2-dihydro-isoquinolin-6-yl]-N-cyclopropyl-4-methyl-benzamide] | 2.51 nM
Cc1ccc(C(=O)NC2CC2)cc1-c1ccc2c(=O)n(Cc3ccc(S(C)(=O)=O)cc3)ccc2c1 [Example 5, N-Cyclopropyl-3-[2-(4-methanesulfonyl-benzyl)-1-oxo-1,2-dihydro-isoquinolin-6-yl]-4-methyl-benzamide] | 3.16 nM
Cc1ccc(C(=O)NC2CC2)cc1-c1ccc2c(=O)n(Cc3ccc(C4=CCN(C(=O)OC(C)(C)C)CC4)cc3)ccc2c1 [Example 6, 4-{4-[6-(5-Cyclopropylcarbamoyl-2-methyl-phenyl)-1-oxo-1H-isoquinolin-2-ylmethyl]-phenyl}-3,6-dihydro-2H-pyridine-1-carboxylic acid, tert-butyl ester] | 6.31 nM
Cc1ccc(C(=O)NC2CC2)cc1-c1ccc2c(=O)n(Cc3ccc(C4CCNCC4)cc3)ccc2c1 [Example 8, N-Cyclopropyl-4-methyl-3-[1-oxo-2-(4-piperidin-4-yl-benzyl)-1,2-dihydro-isoquinolin-6-yl]-benzamide] | 0.501 nM
CONC(=O)c1ccc(C)c(-c2ccc3c(=O)n(Cc4ccc(C5=CCNCC5)cc4)ccc3c2)c1 [Example 9, N-Methoxy-4-methyl-3-[1-oxo-2-[4-(1,2,3,6-tetrahydro-pyridin-4-yl)-benzyl]-1,2-dihydro-isoquinolin-6-yl]-benzamide] | 0.2 nM
Cc1ccc(C(=O)NC2CC2)cc1-c1ccc2c(=O)[nH]ccc2c1 [Example 11, N-Cyclopropyl-4-methyl-3-(1-oxo-1,2-dihydro-isoquinolin-6-yl)-benzamide] | 25.1 nM
C=CCn1ccc2cc(-c3cc(C(=O)NC4CC4)ccc3C)ccc2c1=O [Example 12, 3-(2-Allyl-1-oxo-1,2-dihydro-isoquinolin-6-yl)-N-cyclopropyl-4-methyl-benzamide] | 7.94 nM
Cc1ccc(C(=O)NC2CC2)cc1-c1ccc2c(=O)n(CCCN3CCCC3)ccc2c1 [Example 13, N-Cyclopropyl-4-methyl-3-[1-oxo-2-(3-pyrrolidin-1-yl-propyl)-1,2-dihydro-isoquinolin-6-yl]-benzamide] | 316 nM
Cc1ccc(C(=O)NC2CC2)cc1-c1ccc2c(=O)n(Cc3ccccc3CN(C)C)ccc2c1 [Example 16, N-Cyclopropyl-3-[2-(2-dimethylaminomethyl-benzyl)-1-oxo-1,2-dihydro-isoquinolin-6-yl]-4-methyl-benzamide] | 50.1 nM
COc1ccc(Cn2ccc3cc(-c4cc(C(=O)NC5CC5)ccc4C)ccc3c2=O)cc1 [Example 17, N-Cyclopropyl-3-[2-(4-methoxy-benzyl)-1-oxo-1,2-dihydro-isoquinolin-6-yl]-4-methyl-benzamide] | 1 nM
Cc1ccc(C(=O)NC2CC2)cc1-c1ccc2c(=O)n(Cc3ccc(C(=O)NCCN(C)C)cc3)ccc2c1 [Example 19, N-Cyclopropyl-3-(2-(4-(2-(dimethylamino)ethylcarbamoyl)benzyl)-1-oxo-1,2-dihydroisoquinolin-6-yl)-4-methylbenzamide] | 1 nM
Cc1ccc(C(=O)NC2CC2)cc1-c1ccc2c(=O)n(Cc3ccc(C(=O)NCCN4CCCC4)cc3)ccc2c1 [Example 22, N-Cyclopropyl-4-methyl-3-(1-oxo-2-(4-(2-(pyrrolidin-1-yl)ethylcarbamoyl)benzyl)-1,2-dihydroisoquinolin-6-yl)benzamide] | 0.794 nM
CNCCN(C)C(=O)c1ccc(Cn2ccc3cc(-c4cc(C(=O)NC5CC5)ccc4C)ccc3c2=O)cc1 [Example 23, N-Cyclopropyl-4-methyl-3-(2-(4-(methyl(2-(methylamino)ethyl)carbamoyl)benzyl)-1-oxo-1,2-dihydroisoquinolin-6-yl)benzamide] | 2 nM
Cc1ccc(C(=O)NC2CC2)cc1-c1ccc2c(=O)n(Cc3ccc(CN4CCN(C)CC4)cc3)ccc2c1 [Example 26, N-Cyclopropyl-4-methyl-3-(2-(4-((4-methylpiperazin-1-yl)methyl)benzyl)-1-oxo-1,2-dihydroisoquinolin-6-yl)benzamide] | 3.16 nM
Cc1ccc(C(=O)NC2CC2)cc1-c1ccc2c(=O)n(Cc3ccc(CN(C)C(C)(C)C)cc3)ccc2c1 [Example 27, 3-(2-(4-((Tert-butyl(methyl)amino)methyl)benzyl)-1-oxo-1,2-dihydroisoquinolin-6-yl)-N-cyclopropyl-4-methylbenzamide] | 1 nM
Cc1ccc(C(=O)NC2CC2)cc1-c1ccc2c(=O)n(Cc3ccc(CNC(C)(C)C)cc3)ccc2c1 [Example 28, 3-(2-(4-((Tert-butylamino)methyl)benzyl)-1-oxo-1,2-dihydroisoquinolin-6-yl)-N-cyclopropyl-4-methylbenzamide] | 1 nM

Continued, values first:

IC50 | Compound
0.794 nM | Cc1ccc(C(=O)NC2CC2)cc1-c1ccc2c(=O)n(Cc3ccccc3)ccc2c1 [Example 1, 3-(2-Benzyl-1-oxo-1,2-dihydro-isoquinolin-6-yl)-N-cyclopropyl-4-methyl-benzamide]
7.94 nM | CCNC(=O)c1ccc(C)c(-c2ccc3c(=O)n(Cc4ccccc4)ccc3c2)c1 [Example 2, 3-(2-Benzyl-1-oxo-1,2-dihydro-isoquinolin-6-yl)-N-ethyl-4-methyl-benzamide]
1.26 nM | Cc1ccc(C(=O)NC2CC2)cc1-c1ccc2c(=O)n(Cc3ccc(N4CCN(C)CC4)cc3)ccc2c1 [Example 4, N-Cyclopropyl-4-methyl-3{2-[4-(4-methyl-piperazin-1-yl)-benzyl]-1-oxo-1,2-dihydro-isoquinolin-6-yl}-benzamide]
0.398 nM | Cc1ccc(C(=O)NC2CC2)cc1-c1ccc2c(=O)n(Cc3ccc(C4=CCNCC4)cc3)ccc2c1 [Example 7, N-Cyclopropyl-4-methyl-3-[1-oxo-2-{4-(1,2,3,6-tetrahydro-pyridin-4-yl)-benzyl}-1,2-dihydro-isoquinolin-6-yl]-benzamide, hydrochloride]
2 nM | Cc1ccc(C(=O)NC2CC2)cc1-c1ccc2c(=O)n(Cc3cccc(OCCCN(C)C)c3)ccc2c1 [Example 10, N-Cyclopropyl-3-{2-[3-(3-dimethylamino-propoxy)-benzyl]-1-oxo-1,2-dihydro-isoquinolin-6-yl}-4-methyl-benzamide]
2.51 nM | Cc1ccc(C(=O)NC2CC2)cc1-c1ccc2c(=O)n(Cc3ccc(CN(C)C)cc3)ccc2c1 [Example 14, N-Cyclopropyl-3-[2-(4-dimethylaminomethyl-benzyl)-1-oxo-1,2-dihydro-isoquinolin-6-yl]-4-methyl-benzamide]
3.16 nM | Cc1ccc(C(=O)NC2CC2)cc1-c1ccc2c(=O)n(Cc3cccc(CN(C)C)c3)ccc2c1 [Example 15, N-Cyclopropyl-3-[2-(3-dimethylaminomethyl-benzyl)-1-oxo-1,2-dihydro-isoquinolin-6-yl]-4-methyl-benzamide]
2 nM | Cc1ccc(C(=O)NC2CC2)cc1-c1ccc2c(=O)n(Cc3ccc(C(=O)N(C)CCN(C)C)cc3)ccc2c1 [Example 18, N-Cyclopropyl-3-(2-(4-((2-(dimethylamino)ethyl)(methyl)carbamoyl)benzyl)-1-oxo-1,2-dihydroisoquinolin-6-yl)-4-methylbenzamide]
1.26 nM | Cc1ccc(C(=O)NC2CC2)cc1-c1ccc2c(=O)n(Cc3ccc(C(=O)N4CCN(C)CC4)cc3)ccc2c1 [Example 20, N-Cyclopropyl-4-methyl-3-(2-(4-(4-methylpiperazine-1-carbonyl)benzyl)-1-oxo-1,2-dihydroisoquinolin-6-yl)benzamide]
3.16 nM | Cc1ccc(C(=O)NC2CC2)cc1-c1ccc2c(=O)n(Cc3ccc(C(=O)N(C)CCCN(C)C)cc3)ccc2c1 [Example 21, N-Cyclopropyl-3-(2-(4-((3-(dimethylamino)propyl)(methyl)carbamoyl)benzyl)-1-oxo-1,2-dihydroisoquinolin-6-yl)-4-methylbenzamide]
0.631 nM | Cc1ccc(C(=O)NC2CC2)cc1-c1ccc2c(=O)n(Cc3ccc(C(=O)NCCCN4CCCC4)cc3)ccc2c1 [Example 24, N-Cyclopropyl-4-methyl-3-(1-oxo-2-(4-(3-(pyrrolidin-1-yl)propylcarbamoyl)benzyl)-1,2-dihydroisoquinolin-6-yl)benzamide]
3.16 nM | Cc1ccc(C(=O)NC2CC2)cc1-c1ccc2c(=O)n(Cc3ccc(CN4CCCC4)cc3)ccc2c1 [Example 25, N-Cyclopropyl-4-methyl-3-(1-oxo-2-(4-(pyrrolidin-1-ylmethyl)benzyl)-1,2-dihydroisoquinolin-6-yl)benzamide]
